Measurements reported in publication PMC9692247 (Pharmaceuticals, 2022).

Assays:
[1] = target: HDAC6 (Homo sapiens, UniProt Q9UBN7); experiment: Intracellular target engagement residence time assay (NanoBRET) in HeLa cells; assay type: cell-based; conditions: HeLa cells transiently expressing HDAC6-NanoLuc full-length fusion protein
[2] = target: T1, recombinant zfHDAC6 (HDAC6 CD2) (Danio rerio, UniProt F8W4B7); experiment: Fluorescence polarization (FP) competition assay with FITC-M344; assay type: binding, Danio rerio (zebrafish); conditions: for IC50: 300 nM HDAC6 CD2, 50 nM FITC-M344, read-out: Fluorescence polarization IC50 against zfHDAC6
T1 construct: HDAC6 from Danio rerio (zebrafish; catalytic domain 2, S440-R798); His-SUMO (N, cleaved yes); made in house; host or cells: E. coli BL21 (DE3) RILP
T1 sequence (F8W4B7 440-798): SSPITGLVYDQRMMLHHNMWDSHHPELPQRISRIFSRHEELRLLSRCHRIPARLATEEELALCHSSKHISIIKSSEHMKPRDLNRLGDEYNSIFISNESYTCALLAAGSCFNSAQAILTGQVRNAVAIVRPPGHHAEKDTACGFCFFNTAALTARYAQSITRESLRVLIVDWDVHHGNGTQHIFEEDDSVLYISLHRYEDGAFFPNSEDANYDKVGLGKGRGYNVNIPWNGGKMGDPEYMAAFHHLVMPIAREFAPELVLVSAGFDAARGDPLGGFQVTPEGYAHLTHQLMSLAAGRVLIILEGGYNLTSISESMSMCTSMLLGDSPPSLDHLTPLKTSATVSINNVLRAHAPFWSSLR
Experimental: The FP assay was conducted in a Greiner Bio-one black 384-well, nonbinding microplate (Cat 781900) as previous described. These studies were performed in FP buffer (20 mM HEPES pH 8.0, 137 mM NaCl, 3 mM KCl, 1 mM TCEP, 5% DMSO). Binding experiments were performed in the presence of 50 nM FITC-M344 synthesized as described by Mazitschek et al. and titrated with 0–3 µM HDAC6. Competition assays were performed by titrating 0–100 µM inhibitor to 300 nM HDAC6 CD2 and preincubating the samples for 10 min prior to addition of 50 nM FITC-M344 in FP buffer. The assay mixture was incubated for an additional 10 min before FP measurement. Polarization measurements were collected using Infinite M1000-Tecan (ex/em = 470 nm/530 nm) and data were plotted and fitted using Prism GraphPad 6 built-in function, log(inhibitor) vs. response—variable slope (four parameters).

[3] = Plasma stability evaluation; assay type: in vitro ADME; conditions: read-out: T1/2 in plasma
[4] = In vivo PK study in CD-1 male mice (plasma); parameters: species or system CD-1 mice
Experimental: (§1) In vivo mouse studies were performed at Pharmaron in CD-1 male mice in triplicate. The test compounds were formulated within a 4 mg/mL solution (10% DMA, 65% PEG400, 25% saline). CD-1 mice were administered the test compound (50 mg/kg, I.P) once, and blood samples were obtained from each mouse at 0.25, 0.5, 1, 2, 4, 8, and 24 h post-dose. The mice had free access to food and water, were inspected for clinical signs and were weighted once prior to dosing. The working solutions of 5 μL at different concentrations (2, 4, 10, 20, 100, 200, 1000, 2000 ng/mL) were added to CD-1 mouse plasma (10 μL) to generate calibration standards of 1, 2, 5, 10, 50, 100, 500, and 1000 ng/mL. Four quality control (QC) samples at 2, 5, 50, and 800 ng/mL for plasma were prepared independently of calibration curves. Standards, QC samples, and unknown samples (total volume 15 µL) were added to acetonitrile (200 μL) containing IS (2 ng/mL Verapamil, and 50 ng/mL Dexamethasone) for precipitation of protein. Samples were vortexed and centrifuged (4 °C, 3900 rpm, 15 min), and the supernatant was diluted 3× with ultra-pure water. Diluted supernatant was injected into the LC-MS/MS system for quantitative analysis.

[5] = In vivo brain PK analysis in male CD-1 mice; conditions: IP, 50 mg/kg, n = 3
Experimental: as §1

[6] = test system: DERL-2 cells; experiment: Cytotoxicity assay (Cell Titer-Blue, 72 h); assay type: cell-based; conditions: Homo sapiens, one representative of three experiments
Experimental: (§2) KHYG-1, SNK6, MTA, YT, DERL-2, DERL-7, Mac2a, SU-DHL-1, Myla, Hut78, SeAx, HH, MOTN-1, KOPT-K1, Jurkat, and Loucy cells were plated in 96-well flat-bottom sterile culture plates with low-evaporation lids (Costar #3997). The inhibitors and a vehicle control (0.5% DMSO) were added to the cells following 24 h. After 72 h, Cell Titer-Blue® (Promega #G808A) was added to each well (20 μL), and the fluorescence was measured at 560/590 nm using a Cytation S63 spectrophotometer (BioTek) or on the GloMax® Discover Microplate Reader (Promega, Madison, WI, USA). IC50 values were determined using non-linear regression analysis with GraphPad Prism 6.0 (GraphPad Software Inc., San Diego, CA, USA).

[7] = test system: DERL-7 cells; experiment: Cytotoxicity assay (Cell Titer-Blue, 72 h); assay type: cell-based; conditions: Homo sapiens, DERL7, one representative of three experiments
Experimental: as §2

[8] = test system: HH cells; experiment: Cytotoxicity assay (Cell Titer-Blue, 72 h); assay type: cell-based; conditions: Homo sapiens, one representative of three experiments
Experimental: as §2

[9] = test system: Hut78 cells; experiment: Cytotoxicity assay (Cell Titer-Blue, 72 h); assay type: cell-based; conditions: Homo sapiens, one representative of three experiments
Experimental: as §2

[10] = test system: Jurkat cells; experiment: Cytotoxicity assay (Cell Titer-Blue, 72 h); assay type: cell-based; conditions: Homo sapiens, one representative of three experiments
Experimental: as §2

[11] = test system: KHYG-1 cells; experiment: Cytotoxicity assay (Cell Titer-Blue, 72 h); assay type: cell-based; conditions: Homo sapiens, one representative of three experiments, ANKL to T-ALL panel
Experimental: as §2

[12] = test system: KOPT-K1 cells; experiment: Cytotoxicity assay (Cell Titer-Blue, 72 h); assay type: cell-based; conditions: Homo sapiens, KOPTK1, one representative of three experiments
Experimental: as §2

[13] = test system: Loucy cells; experiment: Cytotoxicity assay (Cell Titer-Blue, 72 h); assay type: cell-based; conditions: Homo sapiens, one representative of three experiments
Experimental: as §2

[14] = test system: MOTN-1 cells; experiment: Cytotoxicity assay (Cell Titer-Blue, 72 h); assay type: cell-based; conditions: Homo sapiens, one representative of three experiments
Experimental: as §2

[15] = test system: MTA cells; experiment: Cytotoxicity assay (Cell Titer-Blue, 72 h); assay type: cell-based; conditions: Homo sapiens, one representative of three experiments
Experimental: as §2

[16] = test system: Mac2a cells; experiment: Cytotoxicity assay (Cell Titer-Blue, 72 h); assay type: cell-based; conditions: Homo sapiens, one representative of three experiments
Experimental: as §2

[17] = test system: Myla cells; experiment: Cytotoxicity assay (Cell Titer-Blue, 72 h); assay type: cell-based; conditions: Homo sapiens, one representative of three experiments
Experimental: as §2

[18] = test system: SNK6 cells; experiment: Cytotoxicity assay (Cell Titer-Blue, 72 h); assay type: cell-based; conditions: Homo sapiens, one representative of three experiments
Experimental: as §2

[19] = test system: SU-DHL-1 cells; experiment: Cytotoxicity assay (Cell Titer-Blue, 72 h); assay type: cell-based; conditions: Homo sapiens, one representative of three experiments
Experimental: as §2

[20] = test system: SeAx cells; experiment: Cytotoxicity assay (Cell Titer-Blue, 72 h); assay type: cell-based; conditions: Homo sapiens, one representative of three experiments
Experimental: as §2

[21] = test system: YT cells; experiment: Cytotoxicity assay (Cell Titer-Blue, 72 h); assay type: cell-based; conditions: Homo sapiens, one representative of three experiments
Experimental: as §2

[22] = test system: acetylation of α-tubulin and histone H3 in acute myeloid leukemia (MV4-11) cells; experiment: In cellulo target engagement by Western blotting; assay type: cell-based; conditions: 6 h treatment, Western blot
Experimental: (§3) Cells (MV4-11 AML, MM.1S multiple myeloma, or YT cells) were incubated with inhibitors prior to washes (2×) with cold phosphate-buffered saline (PBS) and cell lysis with radioimmunoprecipitation assay (RIPA) buffer (20 mM Tris pH 7.4, 150 mM NaCl, 0.5% deoxycholate, 1% Triton X-100, and 0.1% sodium dodecyl sulfate (SDS)). Total protein content was determined through a bicinchoninic acid (BCA) assay (ThermoFisher Scientific, Waltham, MA, USA). The cell lysate proteins were separated via a 4–20% polyacrylamide SDS gel and transferred to a PVDF membrane (Bio-Rad, Hercules, CA, USA). Non-specific binding of the antibody to the membrane was reduced by blocking the membranes with a 5% (w/v) solution of Bovine Serum Albumin powder in TBS-T. This was followed by incubation at 4 °C (overnight) with the following antibodies: acetylated α-tubulin mouse monoclonal (sc-23950, Santa Cruz, Santa Cruz, CA, USA), acetylated Histone H3 (Ac-Lys18, 07-354, Sigma), β-Actin mouse monoclonal (AC-15, sc-69879, Santa Cruz), and […] HSC70 (sc-7298, Santa Cruz). Following overnight incubation, horseradish peroxidase (HRP)-conjugated goat anti-mouse IgG secondary antibody (7076, Cell Signaling) or HRP-linked anti-rabbit IgG secondary antibody (7074, Cell Signaling) was applied to the membrane in a 1:5000 dilution for 1 h. The bands were visualized using clarity Western ECL substrate luminal/enhancer solution and peroxide solution. Western blotting analysis was carried out using Image lab software (Bio-Rad).

[23] = test system: acetylation of α-tubulin and histone H3 in multiple myeloma (MM.1S) cells; experiment: In cellulo target engagement by Western blotting; assay type: cell-based; conditions: 6 h treatment, Western blot
Experimental: as §3

[24] = test system: DERL-2 cells; experiment: FACS apoptosis detection assay (annexin V/PI); assay type: cell-based, human; conditions: DERL-2, 18 h treatment
Experimental: DERL-2 cells were seeded, dosed with inhibitors, incubated for 18 h, and washed with ice cold 1× PBS. The resulting cell pellets were resuspended in 1× Binding Buffer (1 × 10^6 cell/mL) from the FITC Annexin V Apoptosis Detection Kit I (BD Pharmingen). Subsequently, the dyes Annexin V (5 μL) and Propidium Iodide (PI, 5 μL) were added to 2.5 × 10^5 cells (250 μL). The suspension was thoroughly mixed and incubated in the dark for 15 min. Following the addition of 250 μL of 1× binding buffer the cells were analyzed by flow cytometry within 1 h using Cytoflex S (Beckman Coulter, Brea, CA, USA).

[25] = mouse, plasma, male CD-1 mice, IP, 50 mg/kg, n = 3

CC(C)N(Cc1ccc(C(=O)NO)cc1)S(=O)(=O)c1cc(F)c(F)c(F)c1F [NN-390]
Intracellular residence time in HDAC6 [1]: 97 min

CC(C)N(Cc1ccc(C(=O)NO)cc1F)S(=O)(=O)c1cc(F)c(F)c(F)c1F [NN-429]
IC50 [2]: 0.0288 µM | half-life [3]: 1.55 h | in vivo t1/2 longer than that of KT-531 ([4]; CD-1 mice, KT-531 at a lower dose): > 3.5 fold | in vivo t1/2 longer than that of NN-390 ([4]; CD-1 mice, NN-390 at a lower dose): ~ 1.8 fold | AUC(0-inf) [4, 25]: 9920 ng·h/mL | AUC(0-t) [4, 25]: 9860 ng·h/mL | Cmax [4, 25]: 3190 ng/mL | half-life [4, 25]: 3.53 h | Levels in the brain [5]: no observable levels | IC50 [6]: 2.32 µM | IC50 [7]: 2.21 µM | IC50 [8]: 2.95 µM | IC50 [9]: 16.7 µM | IC50 [10]: 5.46 µM | IC50 [11]: 7.25 µM | IC50 [12]: 6.16 µM | IC50 [13]: 3.6 µM | IC50 [14]: 2.75 µM | IC50 [15]: 0.72 µM | IC50 [16]: 15.1 µM | IC50 [17]: > 50 µM | IC50 [18]: 12 µM | IC50 [19]: 4.72 µM | IC50 [20]: 12.4 µM | IC50 [21]: 1.29 µM | Target engagement (α-tubulin vs histone H3 acetylation) [22]: strong target engagement with minimal acetylation of off-target histone H3 | Concentration with visible off-target interaction (histone H3 acetylation) [23]: 5 µM | Lowest concentration with dose-dependent increase in acetylation of α-tubulin [23]: 0.1 µM | Cells undergoing early-stage apoptosis (annexin V+/PI−) ([24]; 0.1 μM): 15% | Cells undergoing early-stage apoptosis (annexin V+/PI−) ([24]; 5 μM): 56%

O=C(CCCCCCNC(=O)c1cnc(N(c2ccccc2)c2ccccc2Cl)nc1)NO [Citarinostat, citarinostat]
IC50 [2]: 0.0902 µM | Binding affinity lower than NN-429 (FP) ([2]; FP IC50 vs NN-429): 3 fold
